Results as given in ChEMBL document CHEMBL3880414, “Isoform Selective HDAC Inhibitors” (2010).
Activity calls are given as the source filed them. The rule behind the calls is not given here.

Key:
[1] = tested on: Plasmodium falciparum; assay: Antiparasitic activity against chloroquine-resistant/verapamil-insensitive Plasmodium falciparum 7G8; type: functional
[2] = tested on: Plasmodium falciparum; assay: Antiparasitic activity against chloroquine-resistant/verapamil-sensitive Plasmodium falciparum Dd2; type: functional
[3] = tested on: Plasmodium falciparum; assay: Antiparasitic activity against chloroquine-resistant/verapamil-sensitive Plasmodium falciparum FCR-3/Gambia; type: functional
[4] = tested on: Plasmodium falciparum; assay: Antiparasitic activity against chloroquine-sensitive Plasmodium falciparum 3D7; type: functional
[5] = tested on: Plasmodium falciparum; assay: Antiparasitic activity against chloroquine-sensitive Plasmodium falciparum HB3; type: functional
[6] = tested on: Plasmodium falciparum; assay: Antiparasitic activity against chloroquine-resistant/verapamil-sensitive Plasmodium falciparum FCB; type: functional
[7] = tested on: Plasmodium falciparum; assay: Antiparasitic activity against chloroquine-resistant/verapamil-sensitive Plasmodium falciparum VS/1; type: functional
[8] = tested on: Plasmodium falciparum; assay: Potentiation of chloroquine-induced anitiparasitic activity in chloroquine-resistant/verapamil-sensitive Plasmodium falciparum FCB assessed as decrease in chloroquine IC50 relative to control; type: functional
[9] = tested on: Plasmodium falciparum; assay: Potentiation of chloroquine-induced anitiparasitic activity in chloroquine-resistant/verapamil-sensitive Plasmodium falciparum Dd2 assessed as decrease in chloroquine IC50 relative to control; type: functional
[10] = Antiproliferative activity against human MCF10A cells; type: cell-based; settings: MCF-10A
[11] = Antiproliferative activity against human SCC35 cells; type: functional, cell-based
[12] = Antiproliferative activity against human DU145 cells; type: functional, cell-based; settings: DU-145
[13] = Antiproliferative activity against human MCF7/ADR cells; type: functional, cell-based; settings: NCI/ADR-RES
[14] = Antiproliferative activity against human MDA231 cells; type: functional, cell-based; settings: MDA-MB-231
[15] = tested on: Plasmodium falciparum; assay: Antiparasitic activity against Plasmodium falciparum 7G8 assessed as growth inhibition after 56 hrs; type: functional
[16] = tested on: Plasmodium falciparum; assay: Antiparasitic activity against Plasmodium falciparum FCR-3/Gambia assessed as growth inhibition after 56 hrs; type: functional
[17] = tested on: Plasmodium falciparum; assay: Antiparasitic activity against Plasmodium falciparum Dd2 assessed as growth inhibition after 56 hrs; type: functional
[18] = tested on: Plasmodium falciparum; assay: Antiparasitic activity against Plasmodium falciparum 3D7 assessed as growth inhibition after 56 hrs; type: functional
[19] = biological target: T1, Histone deacetylase (Homo sapiens) (UniProt Q13547+O15379+Q9UBN7+Q92769+Q9UQL6+Q8WUI4+Q9BY41+Q96DB2+P56524+Q9UKV0+Q969S8); assay: Inhibition of HDAC (unknown origin) at 100 nM using Fluor-Lys as substrate relative to control; type: protein assay
[20] = biological target: T1, Histone deacetylase (Homo sapiens); assay: Potency index, ratio of trichostatin A IC50 to compound IC50 for HDAC (unknown origin); type: protein assay
[21] = tested on: Plasmodium falciparum; assay: Antiparasitic activity against Plasmodium falciparum 3D7 assessed as growth inhibition; type: functional
[22] = tested on: Plasmodium falciparum; assay: Antiparasitic activity against Plasmodium falciparum Dd2 assessed as growth inhibition; type: functional
[23] = Antiproliferative activity against human HS68 cells; type: cell-based
[24] = Antiproliferative activity against human NHP5 cells; type: cell-based
[25] = tested on: Plasmodium falciparum; assay: Antiparasitic activity against chloroquine-resistant/verapamil-sensitive Plasmodium falciparum Dd2 assessed as growth inhibition in presence of chloroquine; type: functional

For CN(C)c1ccc(NC(=O)NCCCCCCC(=O)NO)cc1, the IC50 [1] was 300 nM, the IC50 [2] was 185 nM and the IC50 [3] was 175 nM. It also gave an IC50 [4] of 450 nM, an IC50 [5] of 250 nM and an IC50 [6] of 125 nM. The IC50 [7] was 250 nM, the “fold change (FC)” value [8] was 5.5 and the “fold change (FC)” value [9] was 3.5.
For N[C@@H](Cc1ccccc1)C(=O)Nc1ccccc1-c1ccc(NC(=O)CCCCCCC(=O)NO)cc1, the IC50 [10] was 100000 nM.
For O=C(CCCCCCC(=O)Nc1nc(-c2cccc([N+](=O)[O-])c2)cs1)NO, the IC50 [11] was 380 nM, the IC50 [12] was 320 nM and the IC50 [13] was 3000 nM. The IC50 [14] was < 400 nM, the “growth inhibition (GI)” value [15] was “Active” and the “growth inhibition (GI)” value [16] was “Active”. The “growth inhibition (GI)” value [17] was “Active”, the “growth inhibition (GI)” value [18] was “Active” and the IC50 [1] was 10 nM. It also gave an IC50 [2] of 12 nM, an IC50 [3] of 22 nM and an IC50 [4] of 30 nM.
With Nc1ccccc1-c1csc(NC(=O)CCCCCCC(=O)NO)n1 the inhibition [19] was 2%.
For CCOC(=O)Nc1cccc(-c2csc(NC(=O)CCCCCCC(=O)NO)n2)c1, the Ratio IC50 [20] was 2, the IC50 [11] was 190 nM and the IC50 [12] was 520 nM.
Nc1ccccc1-c1ccc(NC(=O)CCCCCCC(=O)NO)cc1 showed an IC50 [11] of 2580 nM, an IC50 [12] of 180 nM and an IC50 [13] of 10000 nM. For the same compound, the IC50 [14] was 1000 nM, the “growth inhibition (GI)” value [21] was “Active” and the “growth inhibition (GI)” value [15] was “Active”. For the same compound, the “growth inhibition (GI)” value [22] was “Active”.
With N[C@@H](Cc1c[nH]c2ccccc12)C(=O)Nc1ccccc1-c1ccc(NC(=O)CCCCCCC(=O)NO)cc1 the IC50 [10] was > 100000 nM and the IC50 [23] was > 300000 nM.
For N[C@@H](Cc1ccc(O)cc1)C(=O)Nc1ccccc1-c1ccc(NC(=O)CCCCCCC(=O)NO)cc1, the IC50 [24] was 100000 nM, the IC50 [10] was > 100000 nM and the IC50 [23] was > 300000 nM.
O=C(CCCCCCC(=O)Nc1ccc(-c2ccccc2)cc1)NO showed an IC50 [11] of 100 nM, an IC50 [12] of 580 nM and an IC50 [13] of 350 nM. For the same compound, the IC50 [14] was < 400 nM, the “growth inhibition (GI)” value [21] was “Active” and the “growth inhibition (GI)” value [15] was “Active”. For the same compound, the “growth inhibition (GI)” value [22] was “Active”.
O=C(CCCCCCC(=O)Nc1nc(-c2ccccc2)cs1)NO showed an IC50 [11] of 280 nM, an IC50 [12] of 190 nM and an IC50 [13] of 400 nM. The IC50 [14] was < 400 nM, the “growth inhibition (GI)” value [15] was “Active” and the “growth inhibition (GI)” value [16] was “Active”. For the same compound, the “growth inhibition (GI)” value [17] was “Active” and the “growth inhibition (GI)” value [18] was “Active”.
Nc1cccc(-c2csc(NC(=O)CCCCCCC(=O)NO)n2)c1 showed an IC50 [11] of 100 nM, an IC50 [12] of 320 nM and an IC50 [13] of 3000 nM. For the same compound, the IC50 [14] was < 400 nM, the “growth inhibition (GI)” value [15] was “Active” and the “growth inhibition (GI)” value [16] was “Active”. The “growth inhibition (GI)” value [17] was “Active”, the “growth inhibition (GI)” value [18] was “Active” and the IC50 [1] was 0.175 nM. The IC50 [4] was 1.25 nM, the IC50 [5] was 0.9 nM and the “growth inhibition (GI)” value [25] was “Active”.
